Data as given in patent publication US10221171B2, “Oxathiazole thiazolium Hsp 70 inhibitors” (THE REGENTS OF THE UNIVERSITY OF CALIFORNIA, priority 2015, dated 2019).
Where two headings read alike, the source gives them in different places.

Legend:
Format in all cases: cell-based
MDA-MB-231 = assay: MTT cell viability assay, MDA-MB-231; conditions: Homo sapiens
Procedure: (§1) Cells were then treated with compound at various concentrations in 0.2 mL media. After the 72-hour incubation period, cells were washed in PBS (3×100 μL), and 10 μL MTT reagent was added with 100 μL fresh media. Cells were then incubated for 4 hr in a humidified chamber at 37° C. with 5% CO2. Insoluble formazan crystals were solubilized by addition of 0.1 mL detergent solution (4 hr at room temp., dark). Resulting colored solutions were then quantified at an absorbance of 570 nm.

MCF-7 = assay: MTT cell viability assay, MCF-7; conditions: Homo sapiens, read-out: IC50/μM MCF-7
Procedure: as §1

MEF (C57BL/6) = assay: MTT cell viability assay, MEF (C57BL/6); conditions: Mus musculus
Procedure: as §1

[1] = MDA-MB-231, 72 h, 72-hour incubation
[2] = MCF7, 72 h, MTT, 72-hour incubation
[3] = 72 h, read-out: IC50/μM MEF (C57BL/6), MTT, 72-hour incubation
[4] = MTT, 72-hour incubation, read-out: IC50/μM MEF (C57BL/6)

Row | SMILES | IC50 (MDA-MB-231; [1]) [µM] | IC50 (MCF-7; [2]) [µM] | IC50 (MEF (C57BL/6); [3]) [µM] | IC50 (MDA-MB-231; MDA-MB-231, 72-hour incubation) [µM] | IC50 (MCF-7; MCF7, MTT, 72-hour incubation) [µM] | IC50 (MEF (C57BL/6); [4]) [µM] | IC50 (MCF-7; MCF7, 72 h) [µM]
1 | CCn1c(=O)/c(=C2\Sc3cc(SC)ccc3N2C)s/c1=C\c1scc[n+]1Cc1ccccc1 [JG-249] | 0.12 ± 0.01 | 0.13 ± 0.01 | 1.7 ± 0.1 |  |  |  | 
2 | CCn1c(=O)/c(=C2\Sc3cc(C)ccc3N2C)s/c1=C\c1scc[n+]1Cc1ccccc1C [JG-284] |  |  |  | 0.09 ± 0.005 | 0.09 ± 0.006 | 0.64 ± 0.03 | 
3 | CCn1c(=O)/c(=C2\Sc3cc(OC)ccc3N2C)s/c1=C\c1scc[n+]1Cc1ccc(C(F)(F)F)o1 [JG-306] |  |  |  | 0.1 ± 0.01 | 0.16 ± 0.02 | > 10 | 
4 | CCn1c(=O)/c(=C2\Sc3cc(Cl)ccc3N2C)s/c1=C\c1scc[n+]1Cc1ccccc1OC [JG-263] | 0.12 ± 0.01 |  | 1.5 ± 0.1 |  |  |  | 0.4 ± 0.03
5 | CCn1c(=O)/c(=C2\SCCN2C)s/c1=C\c1scc[n+]1Cc1ccccc1 [JG-258] |  |  |  | > 20 | > 5 | > 10 | 
6 | CCn1c(=O)/c(=C2\Sc3ccc(OC)cc3N2C)s/c1=C\c1scc[n+]1Cc1ccccc1C(F)(F)F [JG-401] |  |  |  | 0.11 ± 0.01 | 0.45 ± 0.04 | 0.27 ± 0.03 | 
7 | CCn1c(=O)/c(=C2\Sc3cc(C)ccc3N2C)s/c1=C\c1scc[n+]1Cc1c(C)cccc1C [JG-372] |  |  |  | 0.68 ± 0.16 | 0.18 ± 0.01 | 0.67 ± 0.01 | 
8 | CCn1c(=O)/c(=C2\Sc3cc(Cl)ccc3N2C)s/c1=C\c1scc[n+]1Cc1ccccc1Br [JG-307] |  |  |  | 0.13 ± 0.02 | 0.12 ± 0.01 | 1.1 ± 0.1 | 
9 | CCn1c(=O)/c(=C2\Sc3cc(C)ccc3N2C)s/c1=C\c1scc[n+]1CCc1ccc(Cl)cc1 [JG-386] |  |  |  | 0.28 ± 0.03 | 0.53 ± 0.05 | 1.7 ± 0.1 | 
10 | CCn1c(=O)/c(=C2\Sc3cc(C)ccc3N2C)s/c1=C\c1scc[n+]1CCc1ccccc1OC [JG-390] |  |  |  | 0.12 ± 0.01 | 0.31 ± 0.04 | 1.2 ± 0.1 | 
11 | CCn1c(=O)/c(=C2\Sc3cc(OC)ccc3N2C)s/c1=C\c1scc[n+]1Cc1ccccc1Cl [JG-301] | 0.033 ± 0.005 | 0.048 ± 0.003 | 0.66 ± 0.01 |  |  |  | 
12 | CCn1c(=O)/c(=C2\Sc3cc(F)ccc3N2C)s/c1=C\c1scc[n+]1Cc1ccccc1S(C)(=O)=O [JG-288] |  |  |  | 0.64 ± 0.08 | 1.97 ± 0.11 | > 10 | 
13 | CCn1c(=O)/c(=C2\Sc3cc(Cl)ccc3N2C)s/c1=C\c1scc[n+]1Cc1cccc(Cl)c1 [JG-271] | 0.51 ± 0.06 | 0.26 ± 0.02 | 0.69 ± 0.03 |  |  |  | 
14 | CCn1c(=O)/c(=C2\Sc3cc(OC)ccc3N2C)s/c1=C\c1scc[n+]1CCc1ccc(C(F)(F)F)cc1 [JG-395] |  |  |  | 0.42 ± 0.03 | 0.51 ± 0.06 | 2.9 ± 0.1 | 
15 | CCn1c(=O)/c(=C2\Sc3cc(F)ccc3N2C)s/c1=C\c1scc[n+]1[C@H](C)c1ccccc1 [JG-340] |  |  |  | 0.38 ± 0.03 | 0.24 ± 0.03 | 1.5 ± 0.05 | 
16 | CCn1c(=O)/c(=C2\Sc3cc(Cl)ccc3N2C)s/c1=C\c1scc[n+]1Cc1ccccc1S(C)(=O)=O [JG-287] |  |  |  | 1.3 ± 0.3 | 1.73 ± 0.2 | > 10 | 
17 | CCn1c(=O)/c(=C2\Sc3cc(C)ccc3N2C)s/c1=C\c1scc[n+]1Cc1ccc(C(F)(F)F)o1 [JG-286] |  |  |  | 0.14 ± 0.01 | 0.27 ± 0.02 | 5 ± 0.6 | 
18 | CCn1c(=O)/c(=C2\Sc3ccc(C)cc3N2C)s/c1=C\c1scc[n+]1Cc1c(Cl)cccc1Cl [JG-361] | 0.054 ± 0.006 | 0.088 ± 0.008 | 0.55 ± 0.03 |  |  |  | 
19 | CCn1c(=O)/c(=C2\Sc3cc(Cl)ccc3N2C)s/c1=C\c1scc[n+]1Cc1ccccc1OC(C)=O [JG-247] |  |  |  | 1.8 ± 0.3 | 1.58 ± 0.18 | 6.1 ± 0.3 | 
20 | CCn1c(=O)/c(=C2\Sc3cc(OC)ccc3N2C)s/c1=C\c1scc[n+]1Cc1c(Cl)cccc1Cl [JG-348] |  |  |  | 0.1 ± 0.01 | 0.1 ± 0.01 | 1.1 ± 0.1 | 
21 | CCn1c(=O)/c(=C2\Sc3cc(SC)ccc3N2C)s/c1=C\c1scc[n+]1Cc1c(C)cccc1C [JG-355] |  |  |  | 0.21 ± 0.01 | 0.28 ± 0.02 | 1.5 ± 0.1 | 

Row | SMILES | IC50 (MDA-MB-231; [1]) [µM] | IC50 (MCF-7; [2]) [µM] | IC50 (MEF (C57BL/6); [3]) [µM] | IC50 (MDA-MB-231; MDA-MB-231, 72-hour incubation) [µM] | IC50 (MCF-7; MCF7, MTT, 72-hour incubation) [µM] | IC50 (MEF (C57BL/6); [4]) [µM] | IC50 (MCF-7; MCF7, 72 h) [µM]
22 | CCn1c(=O)/c(=C2\Sc3cc(C(C)C)ccc3N2C)s/c1=C\c1scc[n+]1Cc1ccccc1C(F)(F)F [JG-326] |  |  |  | 0.06 ± 0.007 | 0.069 ± 0.005 | 0.45 ± 0.04 | 
23 | CCn1c(=O)/c(=C2\Sc3cc(C)ccc3N2C)s/c1=C\c1scc[n+]1Cc1ccccc1C(F)(F)F [JG-285] |  |  |  | 0.062 ± 0.01 | 0.078 ± 0.003 | 0.66 ± 0.06 | 
24 | CCn1c(=O)/c(=C2\Sc3cc(C(C)C)ccc3N2C)s/c1=C\c1scc[n+]1Cc1ccccc1OC(F)(F)F [JG-325] | 0.21 ± 0.01 |  | 0.48 ± 0.02 |  |  |  | 0.09 ± 0.005
25 | CCn1c(=O)/c(=C2\Sc3cc(C)ccc3N2C)s/c1=C\c1scc[n+]1CCc1ccccc1Cl [JG-380] |  |  |  | 0.25 ± 0.03 | 0.2 ± 0.02 | 0.94 ± 0.03 | 
26 | CCn1c(=O)/c(=C2\Sc3cc(F)ccc3N2C)s/c1=C\c1scc[n+]1Cc1c(C)cccc1C [JG-334] |  |  |  | 0.38 ± 0.04 | 0.32 ± 0.03 | 1.4 ± 0.1 | 
27 | CCn1c(=O)/c(=C2\Sc3cc(F)ccc3N2C)s/c1=C\c1scc[n+]1Cc1csc(NC(C)=O)n1 [JG-262] |  |  |  | > 20 | > 5 | > 10 | 
28 | CCn1c(=O)/c(=C2\Sc3cc(F)ccc3N2C)s/c1=C\c1scc[n+]1Cc1ccccc1C(=O)O [JG-315] |  |  |  | > 20 | > 20 | > 10 | 
29 | CCn1c(=O)/c(=C2\Sc3cc(F)ccc3N2C)s/c1=C\c1scc[n+]1Cc1cccc(Cl)c1 [JG-272] |  |  |  | 0.77 ± 0.1 | 0.36 ± 0.02 | 0.62 ± 0.03 | 
30 | CCn1c(=O)/c(=C2\Sc3cc(OC)ccc3N2C)s/c1=C\c1scc[n+]1CCc1ccccc1Cl [JG-379] |  |  |  | 0.2 ± 0.03 | 0.18 ± 0.01 | 0.9 ± 0.01 | 
31 | CCn1c(=O)/c(=C2\Sc3cc(SC)ccc3N2C)s/c1=C\c1scc[n+]1Cc1ccccc1C(=O)OC [JG-357] |  |  |  | 0.14 ± 0.01 | 0.25 ± 0.01 | 3.5 ± 0.2 | 
32 | C=CCn1c(=O)/c(=C2\Sc3cc(C)ccc3N2C)s/c1=C\c1scc[n+]1Cc1ccccc1 [JG-341] |  |  |  | 0.11 ± 0.01 | 0.15 ± 0.01 | 1.6 ± 0.1 | 
33 | CCn1c(=O)/c(=C2\Sc3cc(Cl)ccc3N2C)s/c1=C\c1scc[n+]1[C@@H](C)c1ccccc1 [JG-335] |  |  |  | 0.11 ± 0.01 | 0.14 ± 0.02 | 1.4 ± 0.1 | 
34 | CCn1c(=O)/c(=C2\Sc3cc(C)ccc3N2C)s/c1=C\c1scc[n+]1Cc1ccccc1SC(F)(F)F [JG-373] |  |  |  | 0.22 ± 0.03 | 0.095 ± 0.005 | 0.44 ± 0.03 | 
35 | CCc1ccc2c(c1)S/C(=c1/s/c(=C\c3scc[n+]3Cc3ccccc3SC(F)(F)F)n(CC)c1=O)N2C [JG-344] |  |  |  | 0.17 ± 0.01 | 0.087 ± 0.007 | 0.46 ± 0.03 | 
36 | CCn1c(=O)/c(=C2\Sc3cc(Cl)ccc3N2C)s/c1=C\c1scc[n+]1Cc1ccccc1CO [JG-329] |  |  |  | 0.39 ± 0.06 | 0.58 ± 0.1 | 7.3 ± 2.1 | 
37 | CCn1c(=O)/c(=C2\Sc3cc(C)ccc3N2C)s/c1=C\c1scc[n+]1Cc1ccccc1OC(F)(F)F [JG-270] | 0.077 ± 0.009 | 0.064 ± 0.005 | 0.75 ± 0.05 |  |  |  | 
38 | CN1/C(=c2\s/c(=C\c3scc[n+]3Cc3ccccc3)n(C)c2=O)Sc2ccccc21 [JG-277] |  |  |  | 0.49 ± 0.05 | 0.39 ± 0.03 | 4.1 ± 0.2 | 
39 | CCn1c(=O)/c(=C2\Sc3cc(Cl)ccc3N2C)s/c1=C\c1scc[n+]1Cc1csc(NC(C)=O)n1 [JG-261] |  |  | 4.2 ± 0.6 | > 20 | > 5 |  | 
40 | CCn1c(=O)/c(=C2\Sc3ccc(OC)cc3N2C)s/c1=C\c1scc[n+]1Cc1ccccc1OC(F)(F)F [JG-400] | 0.16 ± 0.01 | 0.16 ± 0.02 | 2.2 ± 0.1 |  |  |  | 
41 | CCn1c(=O)/c(=C2\Sc3cc(SC)ccc3N2C)s/c1=C\c1scc[n+]1Cc1ccccc1OC [JG-358] |  |  |  | 0.11 ± 0.01 | 0.22 ± 0.01 | 1.6 ± 0.1 | 
42 | CCn1c(=O)/c(=C2\Sc3cc(Cl)ccc3N2C)s/c1=C\c1scc[n+]1Cc1cnc(Cl)s1 [JG-259] | 2.3 ± 0.3 |  | 8.9 ± 0.8 |  | > 5 |  | 
